Test results from patent publication US5229367A, “Antiinflammatory peptide derived from human lipocortin V” (Sclavo S.p.A., priority 1991, dated 1993).
Converted amounts (≈) assume the structure as drawn. Where two headings read alike, the source gives them in different places. Peptide text beside a SMILES is read from it.

Key:
[1] = system: rat peritoneal leukocytes; assay: Inhibition of zymosan-stimulated prostaglandin E2 release in rat peritoneal leukocytes (radioimmunoassay); assay type: cell-based; settings: peptide 100 μg/ml
Description: Rat peritoneal leukocytes were collected and purified as described by Parente and Flower (supra), then suspended in Krebs solution oxygenated with Carbogen at a final concentration of 1.10^6 cells/ml. Samples (1 ml) of said suspension were incubated in a thermostatic bath at 37° C. for 30 min in the presence (100 μg/ml) and in the absence (control) of the synthetic peptide 204-212. The incubation was maintained for a further 60 min at 37° C. after addition to each culture of 200 μg/ml Zymosan (activated by opsonization, i.e. incubated with mouse serum for 30 min at 37° C.). At the end of this time the cells were separated from the suspension by centrifugation at 10,000 rpm for 5 min using an Eppendorf centrifuge model 5414. The supernatants thus recovered were analysed by radioimmunoassay to monitor the prostaglandin E2 (PGE2) levels.

[2] = target: T1, phospholipase A2 (pig pancreas phospholipase preparation) (Sus scrofa, UniProt P00592); assay: Inhibition of PLA2 induced contractions in rat stomach strip; settings: peptide 20 μg/ml, 30 min; PLA2 4.4 μg/ml; mean of four samples
T1 construct: pig pancreas phospholipase preparation from Sigma; purchased Sigma; host or cells: pig pancreas (tissue-derived preparation)
Description: The rat stomach bottom strip was prepared as originally described by Vane (Br. J. Pharmacol., 12: 344-349, 1957) and suspended in a small bath for resected organs, thermostated at 37° in Krebs solution. After two hours stabilisation in said bath, the stomach reacts to phospholipase A2 stimulation (pig pancreas phospholipase preparation from Sigma) by contracting. These contractions are recorded by means of an isotonic transductor on recorder (Firm Basile). The contracting effect of the PLA2 is concentration-dependent and a concentration of 4.4 μg/ml was used in the experiments with the peptide 204-212. The experiments were carried out as follows:
a) estimation of the stomach contracting effect by the PLA2 at the final concentration of 4.4 μg/ml (control value)
b) after thoroughly washing the strip, peptide (I) was added at the concentration of 20 μg/ml and the effect of the PLA2 was estimated again after 30 min (sample).

[3] = system: PLA2 induced oedema in rat paw; assay: Inhibition of PLA2 induced oedema in rat paw; assay type: in vivo; settings: 2 mg/Kg (400 μg) co-injected with 5 μg PLA2 into paw, mean of five
Description: The oedema induced by PLA2 in the rat paw was generated according to the modified technique of Marshall et al. (J. Cell Biochem. suppl. 12 E: S325, 1985). Practically, the enzyme phospholipase A2 (Naja Mocambique), with a specific activity of about 400 units/mg protein, was dissolved into a physiological solution comprising calcium chloride 1 mM to a final concentration of 100 μg/ml. Thereafter samples (0.5 ml) of said solution were diluted 1:1 (v/v) either with a physiological solution as such, or with a physiological solution comprising the synthetic peptide 204-212 at a concentration of 8 mg/ml. The thus obtained solutions were incubated at 37° C. for 15 min. At the end of this incubation period, 0.1 ml of the solutions either comprising 5 μg of PLA2 only, or additionally 400 μg of the synthetic peptide, were injected into the right back paw of male Wistar rats of 200 g weight (thus the synthetic peptide 204- 212 was given at a 2 mg/Kg dose). The oedema in the paw was measured by means of a water plesthysomometer 30 and 60 min after the injection. The results reported in Table 4 confirm the in vivo PLA2 inhibiting effect of the peptide 204-212.

[4] = system: carrageenin induced oedema in rat paw; assay: Inhibition of carrageenin induced oedema in rat paw; assay type: in vivo; settings: for Oedema 3 hours Inhibition %: 3 hours after carrageenin; for Oedema 4 hours Inhibition %: 4 hours after carrageenin
Description: The carrageenin induced oedema in the rat paw was generated as disclosed by Parente et al. (Eur. J. Pharmacol., 99: 233-239, (1984). Practically 0.1 ml physiological solution comprising 1% (w/v) lambda carrageenin (Sigma) were injected subcutaneously into the right back paw of male Wistar rats weighing 200 g pretreated as follows: 5 rats (control) were locally inoculated with 100 μl sterile physiological solution; 5 rats were locally injected with 100 μl physiological solution comprising […] (respectively corresponding to a dose of 2 and 0.5 mg/Kg) synthetic peptide 204-212. The oedema was measured with a water plethysmometer 3 and 4 hours after the carrageenin injection. The results in Table 5 show an inhibition of the oedema due to the peptide 204-212 and moreover that the extent of the inhibition is dose-dependent.

human fibroblasts = settings: for Inhibition %: PGE2 release, bradykinin 1 μM
Description: Thereafter 0.2 ml of said suspension were placed into each well of a 96 flat bottomed well Cluster dish (firm Costar) and incubated at 37° C. for 72 hours. At the end of said period the cells were washed three times with 0.2 ml medium without serum and then incubated for 60 min at 37° C. as follows:
one part in 0.2 ml DMEM medium without bovine foetal serum (control);
Bradykinin (Sigma) was added thereafter to the final concentration of 1 μM to all the samples, and the incubation was maintained for a further 30 min. Finally the determination of PGE2 in the cell-free supernatants was carried out by making use of a radioimmunoassay.

T1 sequence (P00592 23-146): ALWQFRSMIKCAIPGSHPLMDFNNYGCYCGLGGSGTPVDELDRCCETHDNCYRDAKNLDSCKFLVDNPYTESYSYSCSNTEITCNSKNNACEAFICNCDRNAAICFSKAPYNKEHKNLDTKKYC

CC(C)C[C@H](NC(=O)[C@H](Cc1c[nH]cn1)NC(=O)[C@@H](N)CO)C(=O)N[C@@H](CCCNC(=N)N)C(=O)N[C@@H](CCCCN)C(=O)N[C@H](C(=O)N[C@@H](Cc1ccccc1)C(=O)N[C@@H](CC(=O)O)C(=O)N[C@@H](CCCCN)C(=O)O)C(C)C [Peptide 204-212, H-Ser-His-Leu-Arg-Lys-Val-Phe-Asp-Lys-X] (H-SHLRKVFDK-OH)
Inhibition % ([1]; PGE2 release): 49.8%
PGE2 ([1]; 200 μg/ml opsonized Zymosan, supernatant PGE2 level, mean of three samples plus standard error, control 253.7 + 22.8): 129.0 + 16.9
inhibition at 20 µg/mL [2]: 60.5%
Oedema 30 min ([3]; 30 min after injection): 25.4 ± 7.7
Oedema 60 min ([3]; 60 min after injection): 25.4 ± 7.8
Oedema 3 hours Inhibition % ([4]; 0.5 mg/Kg local injection): 22.7 ± 8.3%
Oedema 4 hours Inhibition % ([4]; 0.5 mg/Kg local injection): 13.7 ± 5.1%
Oedema 3 hours Inhibition % ([4]; 2.0 mg/Kg local injection): 37.0 ± 3.3%
Oedema 4 hours Inhibition % ([4]; 2.0 mg/Kg local injection): 37.5 ± 10.1%
ED 50 (human fibroblasts): 1.13 µg/mL (≈ 1 µM)
Inhibition % (human fibroblasts; 1 ng/ml): 0%
Inhibition % (human fibroblasts; 10 ng/ml): 16 ± 2%
Inhibition % (human fibroblasts; 100 ng/ml): 41 ± 7%
Inhibition % (human fibroblasts; 1 μg/ml): 43 ± 4%
Inhibition % (human fibroblasts; 10 μg/ml): 63 ± 7%
Inhibition % (human fibroblasts; 100 μg/ml): 94 ± 6%
